The results in this text go back to patent US8889591B2, “Herbicidal compositions comprising 4-amino-3-chloro-5-fluoro-6-(4-chloro-2-fluoro-3-methoxyphenyl)pyridine-2-carboxylic acid or a derivative thereof and bromobutide, daimuron, oxaziclomefone or pyributicarb” (Dow Agrosciences LLC, priority 2012, dated 2014).

One experiment concerns ECHCG. Put plainly: Postemergence foliar-applied greenhouse weed control, direct-seeded rice system. The class given is in vivo, Echinochloa crusgalli (L.) Beauv. From the text:
(§1) Seeds or nutlets of the desired test plant species were planted in a soil matrix prepared by mixing a loam or sandy loam soil (e.g., 28.6 percent silt, 18.8 percent clay, and 52.6 percent sand, with a pH of about 5.8 and an organic matter content of about 1.8 percent) and calcareous grit in an 80 to 20 ratio. The soil matrix was contained in plastic pots with a volume of 1 quart and a surface area of 83.6 square centimeters (cm^2). When required to ensure good germination and healthy plants, a fungicide treatment and/or other chemical or physical treatment was applied. The plants were grown for 8-22 days in a greenhouse with an approximate 14 h photoperiod which was maintained at about 29° C. during the day and 26° C. during the night. Nutrients (Peters Excel® 15-5-15 5-Ca 2-Mg and iron chelate) were applied in the irrigation solution as needed and water was added on a regular basis. Supplemental lighting was provided with overhead metal halide 1000-Watt lamps as necessary. The plants were employed for testing when they reached the first through fourth true leaf stage.
(§2) Treatments consisted of the acid or esters of 4-amino-3-chloro-5-fluoro-6-(4-chloro-2-fluoro-3-methoxy-phenyl)pyridine-2-carboxylic acid (Compound A), each formulated as an SC (suspension concentrate), and various herbicidal components alone and in combination. Forms of compound A were applied on an acid equivalent basis.
(§3) Other herbicidal components were applied on an active ingredient basis and included diamuron formulated as an EC (emulsifiable concentrate) and oxaziclomefone (technical grade material).
(§4) Treatment requirements were calculated based upon the rates being tested, the concentration of active ingredient or acid equivalent in the formulation, and a 12 mL application volume at a rate of 187 L/ha.
(§5) For treatments comprised of formulated compounds, measured amounts of compounds were placed individually in 25 mL glass vials and diluted in a volume of 1.25% (v/v) Agri-Dex® crop oil concentrated to obtain 12× stock solutions. […] Application solutions were prepared by adding an appropriate amount of each stock solution (e.g., 1 mL) and diluted to the appropriate final concentrations with the addition of 10 mL of an aqueous mixture of 1.25% (v/v) crop oil concentrate so that the final spray solutions contained 1.25+/−0.05% (v/v) crop oil concentrate.
(§6) For treatments comprised of technical compounds, weighed amounts can be placed individually in 25 mL glass vials and dissolved in a volume of 97:3 v/v acetone/DMSO to obtain 12× stock solutions. […] Application solutions can be prepared by adding an appropriate amount of each stock solution (e.g., 1 mL) and diluted to the appropriate final concentrations with the addition of 10 mL of an aqueous mixture of 1.5% (v/v) crop oil concentrate so that the final spray solutions contain 1.25% (v/v) crop oil concentrate. When technical materials are used, the concentrated stock solutions can be added to the spray solutions so that the final acetone and DMSO concentrations of the application solutions are 16.2% and 0.5%, respectively.
(§7) For treatments comprised of formulated and technical compounds, weighed amounts of the technical materials were placed individually in 25 mL glass vials and dissolved in a volume of 97:3 v/v acetone/DMSO to obtain 12× stock solutions, and measured amounts of the formulated compounds were placed individually in 25 mL glass vials and diluted in a volume of 1.5% (v/v) crop oil concentrate or water to obtain 12× stock solutions. […] Application solutions were prepared by adding an appropriate amount of each stock solution (e.g., 1 mL) and diluted to the appropriate final concentrations with the addition of an appropriate amount of an aqueous mixture of 1.5% (v/v) crop oil concentrate so that the final spray solutions contained 1.25% (v/v) crop oil concentrate. […]

In the next experiment the test system is LEFCH. The experiment is described as above. The class given is in vivo, Leptochloa chinensis (L.) Nees.
Description: as §1, §2, §3, §4, §5, §6, §7

Where [1] appears, read: Compound A Benzyl Ester 4.38 gae/ha alone.
[2] abbreviates: Compound A Benzyl Ester 8.75 gae/ha alone.

For `COc1c(Cl)ccc(-c2nc(C(=O)OCc3ccccc3)c(Cl)c(N)c2F)c1F` [Compound A Benzyl Ester], the “Visual Weed Control (%) - 20 DAA ECHCG Obs” value in the experiment on ECHCG (setting [1]) is reported as 40%; in the experiment with ECHCG (setting [2]) it was 90%. Moreover, the “Visual Weed Control (%) - 20 DAA LEFCH Obs” value in the experiment on LEFCH (setting [1]) was determined as 10%; with LEFCH (setting [2]), 20%; with LEFCH (Compound A Benzyl Ester 17.5 gae/ha alone), 50%.
